Measured values taken from US20240059693A1, “FUSED BICYCLIC PYRAZOLE DERIVATIVES AND METHODS OF USE THEREOF FOR THE TREATMENT OF HERPESVIRUSES” (Merck Sharp & Dohme LLC, priority 2020, published 2024).
Read-outs that look alike come from different tables or passages of the source.

Legend:
[1] = biological target: T1, Human cytomegalovirus DNA polymerase (Human cytomegalovirus, UniProt P08546); experiment: HCMV polymerase assay (AlphaLISA); format: biochemical; settings: HCMV DNA polymerase 0.2 nM, 60 minutes at 37° C.; read-out: CMV (IC50)
T1 construct: made in house; host or cells: SF21 insect cells (baculovirus vector)
T1 sequence (P08546 whole entry): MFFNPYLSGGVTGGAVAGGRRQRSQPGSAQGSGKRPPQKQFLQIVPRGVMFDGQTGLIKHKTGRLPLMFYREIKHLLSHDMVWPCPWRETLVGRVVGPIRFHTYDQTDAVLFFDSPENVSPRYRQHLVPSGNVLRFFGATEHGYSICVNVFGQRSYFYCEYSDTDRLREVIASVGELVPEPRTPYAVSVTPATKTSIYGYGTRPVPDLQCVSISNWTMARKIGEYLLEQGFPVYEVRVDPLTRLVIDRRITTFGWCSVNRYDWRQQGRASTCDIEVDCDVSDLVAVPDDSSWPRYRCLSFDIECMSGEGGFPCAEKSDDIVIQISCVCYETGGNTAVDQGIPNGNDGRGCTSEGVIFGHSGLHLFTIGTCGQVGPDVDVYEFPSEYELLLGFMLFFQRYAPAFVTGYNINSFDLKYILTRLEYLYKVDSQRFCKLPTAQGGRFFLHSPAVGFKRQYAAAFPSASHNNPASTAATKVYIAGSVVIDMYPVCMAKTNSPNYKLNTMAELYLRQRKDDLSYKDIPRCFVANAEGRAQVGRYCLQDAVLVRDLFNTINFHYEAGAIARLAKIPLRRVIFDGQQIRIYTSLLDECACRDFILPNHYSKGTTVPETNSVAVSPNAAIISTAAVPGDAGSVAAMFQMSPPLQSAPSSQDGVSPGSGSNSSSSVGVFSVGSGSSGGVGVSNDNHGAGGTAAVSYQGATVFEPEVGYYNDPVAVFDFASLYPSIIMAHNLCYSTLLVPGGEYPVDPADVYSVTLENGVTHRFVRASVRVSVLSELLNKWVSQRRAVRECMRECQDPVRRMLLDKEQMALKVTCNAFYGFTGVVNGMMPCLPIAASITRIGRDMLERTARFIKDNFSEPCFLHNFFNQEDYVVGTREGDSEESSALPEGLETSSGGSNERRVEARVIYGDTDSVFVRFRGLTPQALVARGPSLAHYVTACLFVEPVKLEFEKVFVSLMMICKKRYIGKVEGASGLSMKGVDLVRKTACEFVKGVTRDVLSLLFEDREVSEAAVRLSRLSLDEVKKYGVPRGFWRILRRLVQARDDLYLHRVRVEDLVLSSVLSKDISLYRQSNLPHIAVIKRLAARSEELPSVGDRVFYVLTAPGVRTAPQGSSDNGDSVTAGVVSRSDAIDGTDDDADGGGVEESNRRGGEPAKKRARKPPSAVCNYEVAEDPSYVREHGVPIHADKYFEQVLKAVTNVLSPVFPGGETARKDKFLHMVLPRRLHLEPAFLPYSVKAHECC
Description: (§1) Human cytomegalovirus and varicella zoster virus DNA polymerases were expressed via baculovirus vector in SF21 cells and purified. Heterodimeric nucleic acid substrate used in the herpesvirus polymerase reactions was generated by annealing a 59-mer template to a 17-mer digoxigenin-labeled primer. Polymerase (HCMV final concentration of 0.2 nM; VZV final concentration of 0.4 nM) was combined with an inhibitor compound or DMSO in assay buffer (10 mM HEPES, pH 7.5, 25 mM KCl, 25 mM NaCl, 5 mM MgCl2, 5% glycerol, 0.67 mg/ml bovine serum albuminutes, and 1 mM tris(2-carboxyethyl)phosphine), and this mixture was pre-incubated for 30 minutes at room temperature in 384-well microtiter plates. The polymerization reaction was initiated by the addition of template/primer substrate (final concentration: 1.6 nM), and dNTPs (final concentration: 24 nM dCTP, 24 nMdGTP, 16 nM dATP, 16 nM dTTP, and 0.8 nM biotin-dUTP). After 60 minutes incubation at 37° C., reactions were terminated with quench buffer (25 mM HEPES pH 7.5, 100 mM NaCl, 0.25% Tween-20, 12 mM EDTA, and 1 mg/ml bovine serum albumin). Incorporation of biotinylated UTP was detected with 2.5-ug/ml anti-DIG AlphaLISA acceptor beads and 5-10 ug/ml streptavidin AlphaLISA donor beads (Perkin Elmer). Compound effects were normalized to the window defined by the controls (DMSO only and pre-quenched wells) and were fit using a 4-parameter algorithm to report an IC50.

[2] = biological target: T2, varicella zoster virus DNA polymerase (Varicella-zoster virus, UniProt P09252); experiment: VZV polymerase assay (AlphaLISA); format: biochemical; settings: VZV DNA polymerase 0.4 nM, 60 minutes at 37° C.
T2 construct: made in house; host or cells: SF21 insect cells (baculovirus vector)
T2 sequence (P09252 whole entry): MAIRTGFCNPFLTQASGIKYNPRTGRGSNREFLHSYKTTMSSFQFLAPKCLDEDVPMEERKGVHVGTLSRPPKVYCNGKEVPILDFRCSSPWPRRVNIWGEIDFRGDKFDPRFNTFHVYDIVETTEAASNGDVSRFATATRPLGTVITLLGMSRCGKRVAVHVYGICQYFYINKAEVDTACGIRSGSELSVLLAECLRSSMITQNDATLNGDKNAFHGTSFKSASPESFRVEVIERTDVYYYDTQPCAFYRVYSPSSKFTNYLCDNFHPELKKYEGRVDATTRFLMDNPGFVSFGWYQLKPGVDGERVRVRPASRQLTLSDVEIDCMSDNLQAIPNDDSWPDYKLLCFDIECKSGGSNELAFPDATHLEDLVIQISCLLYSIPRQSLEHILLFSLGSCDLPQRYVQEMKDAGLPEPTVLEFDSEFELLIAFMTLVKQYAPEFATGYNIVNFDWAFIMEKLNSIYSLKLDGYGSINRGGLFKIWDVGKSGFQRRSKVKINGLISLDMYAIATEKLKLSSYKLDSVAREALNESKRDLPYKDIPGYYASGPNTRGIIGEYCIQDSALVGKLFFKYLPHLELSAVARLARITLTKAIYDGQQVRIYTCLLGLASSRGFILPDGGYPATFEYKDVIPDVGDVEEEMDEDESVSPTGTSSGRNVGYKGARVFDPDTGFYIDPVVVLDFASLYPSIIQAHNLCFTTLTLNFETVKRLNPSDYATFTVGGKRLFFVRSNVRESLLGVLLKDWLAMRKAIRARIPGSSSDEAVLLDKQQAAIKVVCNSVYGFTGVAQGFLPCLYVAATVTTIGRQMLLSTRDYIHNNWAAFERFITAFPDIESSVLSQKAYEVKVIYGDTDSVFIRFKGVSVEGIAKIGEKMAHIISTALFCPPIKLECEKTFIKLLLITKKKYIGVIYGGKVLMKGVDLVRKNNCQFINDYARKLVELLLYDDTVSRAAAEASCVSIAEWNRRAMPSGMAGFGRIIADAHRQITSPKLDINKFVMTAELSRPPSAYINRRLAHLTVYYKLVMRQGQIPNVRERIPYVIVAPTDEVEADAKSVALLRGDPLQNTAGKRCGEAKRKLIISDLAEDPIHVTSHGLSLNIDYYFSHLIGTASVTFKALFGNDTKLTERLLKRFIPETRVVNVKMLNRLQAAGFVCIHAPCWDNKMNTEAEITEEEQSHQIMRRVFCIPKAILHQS
Description: as §1

HSV-1 Strain F = experiment: Viral qPCR assay, HSV-1 in MRC5 cells; format: cell-based, Herpes Simplex Virus type 1; settings: read-out: HSV1 MRC5 Cell (EC50)
Description: (§2) MRCS cells, Vero cells, and MeWo cells were obtained from ATCC and were maintained at 37° C./5% CO2/90% relative humidity in Minimal Essential Medium with 10% fetal bovine serum, […] L-glutamine, 100 units/ml penicillin and 100 ug/ml streptomycin. Assay plates were prepared by dispensing compounds dissolved in DMSO into wells of 384 well collagen-coated plates using an ECHO acoustic dispenser. Each compound was tested in a 10-point, serial 3-fold dilution. Controls included uninfected cells and infected cells treated only with DMSO. Assays were initiated by mixing selected cells, in suspension, with virus, and dispensing 50 μl/well infected cells to pre-plated compounds. Plates were incubated at 37° C./5% CO2/90% relative humidity for ˜72 hrs to permit genomic replication, and infected cells were lysed by the addition of an equal volume of lysis buffer (10 mM Tris-HCl, pH8, 50 mM KCl, 2 mM MgCl2, 0.45% NP-40, 0.45% Tween-20, and 100 μg/ml proteinase K). An aliquot of the lysate was transferred to a 384-well PCR plate and incubated at 56° C. for 1 hour and then at 95° C. for 10 min. Levels of a viral gene and of the cellular control, PPIA (Thermo Fisher Assay ID=Hs04194521_s1), were measured in separate 10 μL qPCR assays using TaqMan® Gene Expression Master Mix (Applied Biosystems), and an 7900HT Fast Real-Time PCR System with 384-Well Block Module. 7-point, serial 10-fold dilutions of a plasmid standard were run on each plate to generate a standard curve, and genome copies numbers were calculated by plotting experimental Ct onto linear regression of the standard curve. Viral genome copy numbers were normalized by cellular control copy number, and compound effects were normalized to the window defined by the controls. Calculated % effects were fit using a 4-parameter algorithm, and EC50 was reported.
as §2, with “gene” for “gene and of the cellular control, PPIA (Thermo Fisher Assay ID=Hs04194521_s1),”, “in” for “in separate”, “Compound effects on viral” for “Viral”, “number” for “numbers were normalized by cellular control copy number, and compound effects”
(§3) VZV: Strain Street was maintained as an infected cell stock in MRC-5 cells. It was assayed in MeWo or MRCS cells and was used at 0.04-0.1 pfu/cell. The assays were performed in growth medium. Primer-probe set was Thermo Fisher Assay ID=AIPAEXQ. HSV-1: Strain F Street was assayed in Vero or MRCS cells and was used at 0.0005-0.004 pfu/cell in growth medium. Primer-probe set was Thermo Fisher Assay ID=AIBJZIB

HSV2 = experiment: Viral qPCR assay, HSV2 in MRC5 cells; format: cell-based, Herpes Simplex Virus type 2; settings: read-out: HSV2 MRC5 Cell (EC50)
Description: as §2
as §2, with “gene” for “gene and of the cellular control, PPIA (Thermo Fisher Assay ID=Hs04194521_s1),”, “in” for “in separate”, “Compound effects on viral” for “Viral”, “number” for “numbers were normalized by cellular control copy number, and compound effects”

VZV = experiment: Viral qPCR assay, VZV in MRC5 cells; format: cell-based, varicella zoster virus; settings: read-out: VZV MRC5 Cell (IC50)
Description: as §2
as §2, with “gene” for “gene and of the cellular control, PPIA (Thermo Fisher Assay ID=Hs04194521_s1),”, “in” for “in separate”, “Compound effects on viral” for “Viral”, “number” for “numbers were normalized by cellular control copy number, and compound effects”
as §3

HCMV Strain AD169 = experiment: Viral qPCR assay, HCMV in MRC-5 cells; format: cell-based, Human cytomegalovirus; settings: read-out: CMV MRC5 Cell (EC50)
Description: as §2
as §2, with “gene” for “gene and of the cellular control, PPIA (Thermo Fisher Assay ID=Hs04194521_s1),”, “in” for “in separate”, “Compound effects on viral” for “Viral”, “number” for “numbers were normalized by cellular control copy number, and compound effects”
HCMV: Strain AD169 Street was assayed in MRC-5 cells and was used at 0.05-0.1 pfu/cell. The assays were performed in either growth media or in the same media with 50% fetal bovine serum. Primer-probe set was Thermo Fisher Assay ID=AIFATFK.

[3] = Human alphaherpesvirus 1, MRC5, 72 h
[4] = Human alphaherpesvirus 2, MRC5, 72 h
[5] = Human alphaherpesvirus 3, MRC5, 72 h
[6] = Human betaherpesvirus 5, AD169, MRC5, 72 h

Row | SMILES | IC50 [1] [nM] | IC50 [2] [nM] | EC50 (HSV-1 Strain F; [3]) [nM] | EC50 (HSV2; [4]) [nM] | IC50 (VZV; [5]) [nM] | EC50 (HCMV Strain AD169; [6]) [nM] | EC50 (HSV-1 Strain F; ~72 hrs) [nM] | EC50 (HSV2; ~72 hrs) [nM] | IC50 (VZV; ~72 hrs) [nM] | EC50 (HCMV Strain AD169; MRC5 cells, ~72 hrs) [nM]
1 | Cc1csc(-n2nc(C(=O)NCc3ccc(Cl)cc3)c3c2CN(C[C@H]2CCC(=O)N2)C3)n1 [Compound 12] | 23 | – | 160 | 44.8 | 220 | 175 | – | – | – | –
2 | O=C1CC[C@H](CN2Cc3c(C(=O)NCc4ccc(Cl)cc4)nn(-c4ccccn4)c3C2)N1 [Compound 13] | 25.8 | – | 284 | 74.6 | 207 | 547 | – | – | – | –
3 | CCOc1cnc(-n2nc(C(=O)NCc3ccc(Cl)cc3)c3c2CN(C[C@H]2CCC(=O)N2)C3)nc1 [Compound 16] | 31.2 | – | 233 | 74.5 | 208 | 298 | – | – | – | –
4 | O=C1CC[C@H](CN2Cc3c(C(=O)NCc4ccc(Cl)cc4)nn(-c4ncc5ccccc5n4)c3C2)N1 [Compound 18] | 71.1 | – | 229 | 108 | 368 | 555 | – | – | – | –
5 | Cc1cn(C)c(-n2nc(C(=O)NCc3ccc(Cl)cc3)c3c2CN(C[C@H]2CCC(=O)N2)C3)n1 [Compound 19] | 90.6 | – | 650 | 333 | 535 | 399 | – | – | – | –
6 | Cn1ccnc1-n1nc(C(=O)NCc2ccc(Cl)cc2)c2c1CN(C[C@H]1CCC(=O)N1)C2 [Compound 20] | 115 | – | 449 | 143 | 309 | 448 | – | – | – | –
7 | O=C1CC[C@H](CN2Cc3c(C(=O)NCc4ccc(Cl)cc4)nn(-c4cnsn4)c3C2)N1 [Compound 22] | 11 | – | – | – | – | – | 231 | 251 | 413 | 313
8 | O=C1CC[C@H](CN2Cc3c(C(=O)NCc4ccc(Cl)cc4)nn(-c4ncco4)c3C2)N1 [Compound 23] | 17.2 | – | 224 | 136 | 325 | 130 | – | – | – | –
9 | O=C1CC[C@H](CN2Cc3c(C(=O)NCc4ccc(Cl)cc4)nn(-c4ncccn4)c3C2)N1 [Compound 28] | 15.2 | – | – | – | – | – | 139 | 89.5 | 210 | 108
10 | O=C1CC[C@@H](CN2Cc3c(C(=O)NCc4ccc(Cl)cc4)nn(-c4ncccn4)c3C2)N1 [Compound 31] | 26.9 | – | 1040 | 1410 | 1470 | 435 | – | – | – | –
11 | O=C1CC[C@@H](CN2Cc3c(C(=O)NCc4ccc(Cl)cc4)nn(-c4nccs4)c3C2)N1 [Compound 42] | 25.9 | – | 996 | 1100 | 1050 | 940 | – | – | – | –
12 | O=C1CC[C@@H](CN2Cc3c(C(=O)NCc4ccc(Cl)cc4)nn(C(F)F)c3C2)N1 [Compound 45] | 37.8 | – | 1990 | 1040 | 1030 | 798 | – | – | – | –
13 | Cn1nc(C(=O)NCc2ccc(Cl)cc2)c2c1CN(C[C@@H]1CCC(=O)N1)C2 [Compound 47] | 38.1 | – | 878 | 611 | 657 | 328 | – | – | – | –

More lines, main results first:

Row | IC50 [1] [nM] | IC50 [2] [nM] | SMILES | EC50 (HSV-1 Strain F; [3]) [nM] | EC50 (HSV2; [4]) [nM] | IC50 (VZV; [5]) [nM] | EC50 (HCMV Strain AD169; [6]) [nM] | EC50 (HSV-1 Strain F; ~72 hrs) [nM] | EC50 (HSV2; ~72 hrs) [nM] | IC50 (VZV; ~72 hrs) [nM] | EC50 (HCMV Strain AD169; MRC5 cells, ~72 hrs) [nM]
14 | 1060 | 289 | Cn1nc(C(=O)NCc2ccc(Cl)cc2)c2c1CC(CC1CCC(=O)N1)C2 (single isomer, unassigned) [Compound 128] | – | – | – | – | – | – | – | –
15 | 252 | – | Cn1nc(C(=O)NCc2ccc(Cl)cc2)c2c1CN(C[C@H]1CC(F)C(=O)N1)C2 (stereo partly shown) [Compound 78] | 3030 | 2220 | 2870 | 2880 | – | – | – | –
16 | 69.6 | – | Cn1nc(C(=O)NCc2ccc(Cl)cc2)c2c1CN(C[C@@H]1CC(F)C(=O)N1)C2 (stereo partly shown) [Compound 79] | 1180 | 935 | 1170 | 232 | – | – | – | –
17 | 60.3 | – | Cn1nc(C(=O)NCc2ccc(Cl)cc2)c2c1CN(C[C@@H]1CC(F)(F)C(=O)N1)C2 [Compound 82] | 2880 | 1020 | 1450 | 250 | – | – | – | –
18 | 31.7 | – | CCC(C1CCC(=O)N1)N1Cc2c(C(=O)NCc3ccc(Cl)cc3)nn(C)c2C1 (stereo not shown) [Compound 90] | – | – | – | – | 1320 | 1180 | 1230 | 212
19 | 127 | – | Cn1nc(C(=O)NCc2ccc(Cl)cc2)c2c1CN(CC13CC1CC(=O)N3)C2 (stereo not shown) [Compound 95] | 3300 | 3720 | 4550 | 632 | – | – | – | –
20 | 5.07 | – | O=C1N[C@@H](CN2Cc3c(C(=O)NCc4ccc(Cl)cc4)nn(C(F)F)c3C2)CO1 [Compound 99] | 79.5 | 43.2 | 53.1 | 60.5 | – | – | – | –
21 | 57.9 | – | CC1c2c(c(C(=O)NCc3ccc(Cl)cc3)nn2C)CN1C(C)C1CCC(=O)N1 (stereo not shown) [Compound 111] | – | – | – | – | 557 | 248 | 402 | 125
22 | 105 | – | CC1c2c(c(C(=O)NCc3ccc(Cl)cc3)nn2C)CN1C(C)C1CCC(=O)N1 (stereo not shown) [Compound 112] | – | – | – | – | 294 | 233 | 263 | 148
23 | 141 | – | Cn1nc(C(=O)NCc2ccc(Cl)cc2)c2c1C1(CCC1)N(C[C@H]1CCC(=O)N1)C2 [Compound 124] | – | – | – | – | 3360 | 2350 | 2160 | 581
